Results on one compound are retold here after ChEMBL document CHEMBL6115007, “Synthesis and in vitro and in vivo evaluation of novel bivalent quinolines as antitumor agents via targeting autophagy in cervical cancer” (Eur J Med Chem, 2025).

Active and inactive are the calls of the source. The rule behind the calls is not given here.

Data set [1] has as its system Ca-Ski. Description: Inhibition of colony formation in human Ca Ski cells assessed as reduction in colony forming unit count at 0.1 to 0.4 uM incubated for 24 hrs by crystal violet staining based analysis. Type of data set: functional, cell-based. Conditions: dose 0.1-0.4 µM.
For data set [2], the system named is HeLa. Description: Inhibition of cell migration in human HeLa cells at 0.6 to 1.2 uM measured after 24 hrs by transwell migration assay. Format: functional, cell-based. Particulars: dose 0.6-1.2 µM.
For data set [3], the system named is HeLa. In words: Induction of morphological changes in human HeLa cells assessed as increase in appearance of round cells at 0.6 to 2.4 uM by microphotographic analysis. Format: functional, cell-based. Conditions: dose 0.6-2.4 µM.
For data set [4], the system named is HeLa. Description: Induction of morphological changes in human HeLa cells assessed as decrease in cell adherence to culture dish at 0.6 to 2.4 uM by microphotographic analysis. Format: functional, cell-based. Conditions: dose 0.6-2.4 µM.
Data set [5] deals with HeLa. In words: Induction of apoptosis in human HeLa cells assessed as late apoptotic cells at 0.6 uM preincubated with Z-VAD-FMK for 1 hrs followed by compound addition and measured after 24 hrs by Annexin V-FITC/PI staining based flow cytometric analysis (reference value: 1.02 %). Format: functional. In general terms: In flow cytometry, cells or beads pass a laser one at a time.

For data set [6], the system named is HeLa. In words: Induction of apoptosis in human HeLa cells assessed as early apoptotic cells at 1.2 uM preincubated with Z-VAD-FMK for 1 hrs followed by compound addition and measured after 24 hrs by Annexin V-FITC/PI staining based flow cytometric analysis (reference value: 0.96 %). Type of data set: functional.
The subject of data set [7] is Ca-Ski. Description: Induction of apoptosis in human Ca Ski cells assessed as viable cells at 0.5 uM incubated for 24 hrs by Annexin V-FITC/PI staining based flow cytometric analysis (reference value: 86.8 %). Type of data set: functional. Conditions: read-out: Activity.
For data set [8], the system named is Ca-Ski. Description: Induction of apoptosis in human Ca Ski cells assessed as viable cells at 0.5 uM preincubated with Z-VAD-FMK for 1 hrs followed by compound addition and measured after 24 hrs by Annexin V-FITC/PI staining based flow cytometric analysis (reference value: 90.2 %). Type of data set: functional. Particulars: read-out: Activity.
Data set [9] concerns Ca-Ski. In words: Antiproliferative activity against p53 deficient human Ca Ski cells assessed as inhibition of cell viability incubated for 24 hrs by CCK8 assay. Format: functional, cell-based.
Data set [10] has as its system Ca-Ski. In words: Effect on cleaved caspase 3 expression level in p53 deficient human Ca Ski cells at 0.5 to 1 uM incubated for 24 hrs by Western blot analysis. Conditions: dose 0.5-1 µM. Type of data set: functional, cell-based. In general terms: A western blot detects proteins with antibodies after separation by electrophoresis.
Data set [11] has as its system HeLa. In words: Effect on TRFC protein expression level in human HeLa cells at 0.6 uM incubated for 24 hrs by Western blot analysis. Type of data set: functional, cell-based.
For data set [12], the system named is Ca-Ski. In words: Effect on ACSL4 protein expression level in human Ca Ski cells at 0.5 uM incubated for 24 hrs by Western blot analysis. Format: functional, cell-based.
The test system of data set [13] is Ca-Ski. In words: Induction of autophagy in human Ca Ski cells assessed as increase in p62 level at 0.25 to 1 microM incubated for 24 hrs by Western blot analysis. Type of data set: functional, cell-based. Particulars: dose 0.25-1 µM.
The test system of data set [14] is HeLa. Description: Induction of autophagy in human HeLa cells assessed as increase in LC3-II accumulation at 0.6 uM incubated for 3 to 48 hrs by Western blot analysis. Format: functional, cell-based. Particulars: time 3-48 hrs.
For data set [15], the system named is HeLa. Description: Induction of autophagy in human HeLa cells assessed as increase in ATG7 protein level at 0.6 to 1.2 uM incubated for 24 hrs by Western blot analysis. Type of data set: functional, cell-based. Particulars: dose 0.6-1.2 µM.
Data set [16] deals with HeLa. In words: Induction of autophagy in ATG5 deficient human HeLa cells assessed as increase in LC3-II expression at 0.6 to 1.2 uM incubated for 24 hrs by Western blot analysis. Format: functional, cell-based. Conditions: dose 0.6-1.2 µM.
Data set [17] concerns HeLa. In words: Antitumor activity against human HeLa cells xenografted in female BALB/c mouse assessed as inhibition of tumor progression at 4 to 8 mg/kg administered every four days and measured after 26 days by imaging analysis. Particulars: dose 4-8 mg/kg, time 26.0 day. Format: functional, organism-based. (A xenograft is tissue or cells of one species grown in another, often human tumour cells in immunodeficient mice.)

Data set [18] is described as follows: Toxicity in female BALB/c mouse xenografted with human HeLa cells assessed as effect on ALT level at 4 to 8 mg/kg administered every four days and measured after 26 days. Conditions: in vivo, 624 h, dose 4-8 mg/kg, time 26 day. Type of data set: organism-based.
The nature of data set [19]: Toxicity in female BALB/c mouse xenografted with human HeLa cells assessed as effect on WBC level at 4 to 8 mg/kg administered every four days and measured after 26 days. Type of data set: organism-based. Conditions: in vivo, 624 h, dose 4-8 mg/kg, time 26 day.
Data set [20] concerns Ca-Ski. Description: Induction of autophagy in human Ca Ski cells transfected with mRFP-GFP-LC3 plasmid assessed as stable RFP fluorescence at 25 uM incubated for 24 hrs by DAPI staining based fluorescence confocal microscopic analysis. Type of data set: functional, cell-based.
Data set [21] deals with Ca-Ski. Description: Induction of autophagy in human Ca Ski cells transfected with mRFP-GFP-LC3 plasmid assessed as decrease in GFP fluorescence at 25 uM incubated for 24 hrs by DAPI staining based fluorescence confocal microscopic analysis. Type of data set: functional, cell-based.

A word on the IC50: it is the point on the concentration scale where inhibition reaches its midpoint.

For the compound `COc1cccc(Nc2ccnc3cc(OCCCCCOc4ccc5c(Nc6cccc(OC)c6)ccnc5c4)ccc23)c1`, the inhibition entry in the data set on Ca-Ski [1] and with HeLa [2] was “Active” in each case. Further, the result in the data set on HeLa [3], with HeLa [4], in the data set on Ca-Ski [13], in the data set with HeLa [14], in the data set on HeLa [15] and in the data set on HeLa [17] was Active. The result in the data set with Ca-Ski [20] and in the data set on Ca-Ski [21] was Active. Also, the Activity in the data set with HeLa [5] is listed as 2.8%; in the data set with HeLa [6], 1.22%; in the data set with Ca-Ski [12], “Moderate_effect”; in [18], “Non-toxic”; in data set [19], “Non-toxic”. The figures for the viability at 0.5 µM with Ca-Ski [7] and in the data set with Ca-Ski [8] were 85.5% and 73.7%, respectively. In addition, the IC50 with Ca-Ski [9] is 872 nM. Also, the result in the data set on Ca-Ski [10], in the data set with HeLa [11] and in the data set with HeLa [16] was inactive.
